The subject of one assay is untransfected CHO cells. As to the kind of experiment: [Ca2+]i in untransfected CHO cells. It counts as cell-based. The note with it: untransfected CHO cells or absence of extracellular Ca2+ (data not shown). The procedure: (§1) Untransfected CHO cells and CHO cells expressing mouse or human TRPA1 were grown in MEM Glutamax or AQ medium supplemented with penicillin (100 U/ml), streptomycin (100 µg/ml), and FCS (10%). Plasmids encoding mutated TRPA1 channels were kindly provided by Dr. Ardem Patapoutian. All media, serum and antibiotics were from Invitrogen (Paisley, UK) or Sigma (Poole, UK).
(§2) Cells were loaded with 2 µM Fura-2 AM (Molecular Probes, Paisley, UK) in the presence of 1 mM probenecid for ∼1 hr. The experiments were performed in a physiological saline solution containing (in mM) 140 NaCl, 5 KCl, 10 glucose, 10 HEPES, 2 CaCl2, and 1 MgCl2, buffered to pH 7.4 with NaOH. Compounds were applied to cells by local continuous microperfusion of solution through a fine tube placed in close proximity of the cells studied. Images of a group of cells were captured every 2 sec using 340 and 380 nm excitation wavelengths with emission measured at 520 nm with a microscope based imaging system (PTI, New Jersey). […]
(§3) Changes in intracellular calcium ([Ca^2+]i) in response to agonists were determined in TRPA1 expressing CHO cells and MDCK cells using a Flexstation 3 (Molecular Devices). […] Basal emission ratios (340 nm/380 nm) were measured and changes in ratio determined at various times after compound addition.

In assay [1] the test system is human TRPA1 C621S, C641S or C665S. As to the kind of experiment: [Ca2+]i-responses of human TRPA1 point mutants C621S, C641S, C665S. It counts as cell-based. The note with it: human TRPA1 single point mutants vs wildtype. The procedure: as §1, §2, §3
For the next assay, the target named is T1, mouse TRPA1 (Mus musculus, UniProt Q8BLA8).
T1 construct: expressed in transfected cells; host or cells: CHO cells
T1 sequence (Q8BLA8 whole entry): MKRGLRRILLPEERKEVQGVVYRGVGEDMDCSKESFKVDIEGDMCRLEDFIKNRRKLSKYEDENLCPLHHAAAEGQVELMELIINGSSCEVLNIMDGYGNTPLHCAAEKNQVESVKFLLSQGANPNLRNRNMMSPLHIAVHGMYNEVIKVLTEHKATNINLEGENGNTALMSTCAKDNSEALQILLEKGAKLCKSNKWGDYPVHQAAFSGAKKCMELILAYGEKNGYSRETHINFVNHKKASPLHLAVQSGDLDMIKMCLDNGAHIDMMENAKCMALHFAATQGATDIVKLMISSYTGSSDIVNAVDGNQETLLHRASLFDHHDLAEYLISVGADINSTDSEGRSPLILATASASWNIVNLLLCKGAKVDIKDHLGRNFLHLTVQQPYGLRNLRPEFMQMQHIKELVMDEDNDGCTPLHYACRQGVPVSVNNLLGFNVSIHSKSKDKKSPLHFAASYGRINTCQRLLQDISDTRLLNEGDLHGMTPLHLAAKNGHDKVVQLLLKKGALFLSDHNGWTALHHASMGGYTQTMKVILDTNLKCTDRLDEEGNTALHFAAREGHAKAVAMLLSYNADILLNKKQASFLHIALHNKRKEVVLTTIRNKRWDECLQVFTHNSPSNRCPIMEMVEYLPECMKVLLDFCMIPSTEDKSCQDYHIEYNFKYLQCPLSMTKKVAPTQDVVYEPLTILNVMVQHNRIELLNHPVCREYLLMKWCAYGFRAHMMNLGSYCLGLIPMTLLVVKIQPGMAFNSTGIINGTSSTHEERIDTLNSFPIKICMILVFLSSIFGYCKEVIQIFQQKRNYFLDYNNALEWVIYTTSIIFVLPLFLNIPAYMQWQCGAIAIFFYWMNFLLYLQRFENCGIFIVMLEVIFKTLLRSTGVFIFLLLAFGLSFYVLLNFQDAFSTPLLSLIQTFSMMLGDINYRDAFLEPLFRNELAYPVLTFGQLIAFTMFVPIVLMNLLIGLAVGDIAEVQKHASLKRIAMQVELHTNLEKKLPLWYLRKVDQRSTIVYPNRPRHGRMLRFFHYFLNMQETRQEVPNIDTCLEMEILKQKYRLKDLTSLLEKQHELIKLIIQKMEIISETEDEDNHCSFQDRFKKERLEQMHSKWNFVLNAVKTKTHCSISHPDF
As to the kind of experiment: [Ca2+]i-responses in CHO cells expressing mouse TRPA1. In kind it is cell-based. The note with it: CHO cells expressing mouse TRPA1, extracellular application; read-out: EC50, increases in [Ca2+]i. The procedure: as §1, §2, §3

A further assay concerns beta cells. As to the kind of experiment: [Ca2+]i-responses in pancreatic beta cells. It counts as cell-based, mice. To be noted: MG 0.5 mM (Fig. 7A). How it is done:
Mouse islets of Langerhans were isolated from the exocrine pancreas by collagenase digestion (1 mg/ml, type XI, Sigma, Poole, UK). Islets were dissociated by 15 min incubation in trypsin (0.5%, Sigma, Poole, UK) followed by trituration through a flame polished glass Pasteur pipette and the islet cells were seeded on glass cover slips.
Cells were loaded with 2 µM Fura-2 AM (Molecular Probes, Paisley, UK) in the presence of 1 mM probenecid for ∼1 hr. The experiments were performed in a physiological saline solution containing (in mM) 140 NaCl, 5 KCl, 10 glucose, 10 HEPES, 2 CaCl2, and 1 MgCl2, buffered to pH 7.4 with NaOH. Compounds were applied to cells by local continuous microperfusion of solution through a fine tube placed in close proximity of the cells studied. Images of a group of cells were captured every 2 sec using 340 and 380 nm excitation wavelengths with emission measured at 520 nm with a microscope based imaging system (PTI, New Jersey). Analyses of emission intensity ratios at 340 nm/380 nm excitation (R, in individual cells) were performed using the ImageMaster suite of software.

The test system of another assay is TRPA1. Put plainly: Excised inside-out patches, TRPA1 channel activity. In kind it is cell-based. The note with it: inside-out configuration, applied to intracellular face. The procedure:
DRG neurons and TRPA1 CHO cells were studied under voltage-clamp conditions using an Axopatch 200B amplifier and pClamp 10.0 software (Molecular Devices, Sunnyvale, CA). Except where stated otherwise, whole cell recordings were performed at a holding potential of –60 mV using an extracellular solution with the composition described above for [Ca^2+]i measurements. Borosilicate glass pipettes (2–5 MΩ, 75–80% series resistance compensation) were filled with (in mM) 140 KCl, 1 CaCl2, 2 MgATP, 10 EGTA, and 10 HEPES buffered to pH 7.4 (KOH). Excised inside-out patches were recorded using a Ca^2+-free solution containing (in mM) 140 NaCl, 5 KCl, 1 MgCl2, 10 HEPES and 1 EGTA, pH 7.4 (NaOH) in the pipettes and perfused with 140 KCl, 2 MgATP, 1 EGTA, and 10 HEPES (pH 7.4). DRG neurons were studied using an intracellular solution containing (in mM) 140 CsCl, 1 CaCl2, 2 MgATP, 10 EGTA and 10 HEPES, pH 7.4 (CsOH). Drugs were applied by local microperfusion with a rapid solution changer (RSC-200, Biologic, Claix, France).

A further assay concerns the target T2, human TRPA1 (Homo sapiens, UniProt O75762).
T2 construct: expressed in transfected cells; host or cells: CHO cells
Put plainly: [Ca2+]i-responses in CHO cells expressing human TRPA1. The note with it: CHO cells expressing human TRPA1, extracellular application; read-out: EC50, increases in [Ca2+]i. In kind it is cell-based. The procedure: as §1, §2, §3

T2 sequence (O75762 whole entry): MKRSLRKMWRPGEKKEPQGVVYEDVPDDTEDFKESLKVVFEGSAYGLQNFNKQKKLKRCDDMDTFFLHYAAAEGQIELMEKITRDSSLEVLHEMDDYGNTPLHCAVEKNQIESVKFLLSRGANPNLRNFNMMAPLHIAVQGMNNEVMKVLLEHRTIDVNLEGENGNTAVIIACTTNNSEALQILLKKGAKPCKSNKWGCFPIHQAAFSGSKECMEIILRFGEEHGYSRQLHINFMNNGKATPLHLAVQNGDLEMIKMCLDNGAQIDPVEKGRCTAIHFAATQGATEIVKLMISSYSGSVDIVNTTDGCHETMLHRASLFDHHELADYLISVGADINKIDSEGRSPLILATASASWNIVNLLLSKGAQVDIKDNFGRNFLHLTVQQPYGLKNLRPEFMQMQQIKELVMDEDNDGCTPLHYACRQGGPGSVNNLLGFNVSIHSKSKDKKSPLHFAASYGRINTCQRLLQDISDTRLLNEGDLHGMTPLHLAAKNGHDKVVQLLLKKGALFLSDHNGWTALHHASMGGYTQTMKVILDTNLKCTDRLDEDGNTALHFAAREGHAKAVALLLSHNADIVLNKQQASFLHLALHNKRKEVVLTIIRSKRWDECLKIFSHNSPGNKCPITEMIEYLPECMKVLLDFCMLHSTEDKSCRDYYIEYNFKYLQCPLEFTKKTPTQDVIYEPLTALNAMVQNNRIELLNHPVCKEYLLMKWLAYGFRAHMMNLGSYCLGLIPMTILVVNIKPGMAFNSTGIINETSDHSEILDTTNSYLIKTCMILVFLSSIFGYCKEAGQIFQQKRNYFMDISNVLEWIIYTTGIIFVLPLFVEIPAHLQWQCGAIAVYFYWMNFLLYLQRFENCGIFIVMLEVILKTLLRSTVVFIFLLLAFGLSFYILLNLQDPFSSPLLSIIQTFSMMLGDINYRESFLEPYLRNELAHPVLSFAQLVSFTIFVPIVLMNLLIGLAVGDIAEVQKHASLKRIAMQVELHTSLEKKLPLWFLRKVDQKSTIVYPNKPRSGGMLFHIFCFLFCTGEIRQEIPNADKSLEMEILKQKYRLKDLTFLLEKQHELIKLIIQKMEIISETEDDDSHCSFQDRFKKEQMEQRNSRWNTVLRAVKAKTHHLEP

In the case of `CC(=O)C=O` [MG, methylglyoxal], the “effect on [Ca2+]i” value in the assay on untransfected CHO cells is reported as “had no effect”. Also, the “effect of substitutions C621S, C641S, C665S on potency of MG” value in assay [1] is “None of these amino acid substitutions affected the potency of MG significantly”. The EC50 (commonly the concentration giving half of the maximal effect) at mouse TRPA1 turned out to be 900 ± 100 µM; with TRPA1, 74 µM; on human TRPA1 it was 700 ± 200 µM. For the same compound, the “[Ca2+]i-responses in beta cells” value in the assay with beta cells is “evoked [Ca^2+]i-responses in a subpopulation of tolbutamide sensitive beta cells”. For the same compound, the “number of MG sensitive cells and response amplitude, Trpa1+/+ vs Trpa1-/- cultures” value in the assay with beta cells is reported as “similar”.

The values above are taken from PMC3805573, “Methylglyoxal Evokes Pain by Stimulating TRPA1” (PLoS ONE, 2013).
